Consider five compounds from patent US20150017156A1, “ESX-MEDIATED TRANSCRIPTION MODULATORS AND RELATED METHODS” (THE OHIO STATE UNIVERSITY, priority 2011, published 2015).

Where two headings read alike, the source gives them in different places.

Data set [1] has as its system SKBR3 Her2-positive breast carcinoma cells. Conditions: cited from earlier work.
Data set [2] concerns Her2 expression in SKBR3 cells. The settings on record: cited from earlier work.
A further data set has as its system CAL27 HNSCC cells. The data set can be described thus: Xenograft model of HNSCC, CAL27 in athymic nude mice.
The test system of data set [3] is CAL27 cells. Conditions: 12.5 μmol/L. How it is done:
(§1) A. EGFR and Her2 levels. […] Cell lysates were prepared and determined for EGFR and Her2 protein levels by immunoblot analyses. B. Cell proliferation. […] Cell proliferation was assessed using the CCK-8 reagent to detect metabolic active cells. Dose-response curves and IC50 values were generated using GraphPad Prism 4.0 (GraphPad Software, La Jolla, Calif.). […] C. Cell invasion. Cell invasion was determined as described from the cell invasion assay kit (Chemicon International, Temecula, Calif.). […] An aliquot (1×10^5 cells) of the prepared cell suspension was added to the top chamber and 10% FBS was added to the bottom chamber. After 24 hours, non-invading cells were gently removed from the interior of the inserts with a cotton-tipped swab. Invasive cells were stained and visualized. A representative field for each experimental condition is presented. D. Cell migration. Cell migration was determined using the wound healing assay. Cells were seeded and allowed to grow until confluence. […] A representative field for each experimental condition at 0 hour and 24 hours is presented.

Data set [4] relates to SCC25 cells. The settings on record: 15 μmol/L. How it is done: as §1
Data set [5] deals with EGFR and Her2 levels in CAL27 cells. The settings on record: 24 hours, immunoblot. Here is the method: as §1
Data set [6] has as its system EGFR and Her2 levels in SCC25 cells. Conditions: 24 hours, immunoblot. How it is done:
as §1
In general terms: In western blotting, separated proteins are transferred to a membrane and probed.

Data set [7] deals with CAL27 cells. The data set can be described thus: Cell proliferation (CCK-8 reagent), CAL27. The data set is classed as cell-based. The settings on record: Homo sapiens, read-out: IC50 for cell proliferation. Here is the method: (§2) A. EGFR and Her2 levels. […] Cell lysates were prepared and determined for EGFR and Her2 protein levels by immunoblot analyses. B. Cell proliferation. […] (ESXm) for 24 hours. Cell proliferation was assessed using the CCK-8 reagent to detect metabolic active cells. Dose-response curves and IC50 values were generated using GraphPad Prism 4.0 (GraphPad Software, La Jolla, Calif.). […] C. Cell invasion. Cell invasion was determined as described from the cell invasion assay kit (Chemicon International, Temecula, Calif.). […] An aliquot (1×10^5 cells) of the prepared cell suspension was added to the top chamber and 10% FBS was added to the bottom chamber. After 24 hours, non-invading cells were gently removed from the interior of the inserts with a cotton-tipped swab. Invasive cells were stained and visualized. A representative field for each experimental condition is presented. D. Cell migration. Cell migration was determined using the wound healing assay. Cells were seeded and allowed to grow until confluence. […] A representative field for each experimental condition at 0 hour and 24 hours is presented.
(§3) Cell proliferation was assessed using the CCK-8 reagent to detect metabolic active cells. Dose-response curves and IC50 values were generated using GraphPad Prism 4.0 (GraphPad Software, La Jolla, Calif.).
A general note: Formazan colour is commonly taken as a measure of viable cells.

Data set [8] deals with SCC25 cells. The data set can be described thus: Cell proliferation (CCK-8 reagent), SCC25. The data set is classed as cell-based. Conditions: Homo sapiens, read-out: IC50 for cell proliferation. How it is done:
as §2, §3

A short description of data set [9]: Precipitation in cell culture media. The data set is classed as physicochemical. The settings on record: higher concentrations.
Data set [10] concerns phosphorylated erbB2 levels in SkBr3 cells.
Description: ErbB2 and p-erbB2 ELISA: ELISA assays were performed based on those published elsewhere.[4] […] After 24 hours, media was removed carefully and cells were fixed and permeabilized with cold (−20° C.) methanol. The cells were then washed twice with TBST, blocked for 2 hours at room temperature with superblock (TBST solution from Pierce), incubated with the primary antibody overnight at 4° C. (as a 1:500 solution in superblock). Cells were then washed twice more with TBST and incubate with secondary antibody for 2 hours at room temperature (as a 1:1000 solution in superblock). After being washed 3 times with TBST, Slow TMB (Pierce) was added to measure antibody levels in accordance with the manufacturer's instructions and the absorbance at 370 nm was measured. The cells were washed 3 more times with TBST and total protein levels were measured at 560 nm using BCA reagent (Pierce). […] The resulting ratios were then normalized to cells treated with DMSO.

Excerpt for SkBr3 (erbB2+) cells: Isobolograms were generated by computing dose fractions directly from the IC50s. Dose fraction is defined as the dose of one component in a combination required to exert a given effect (usually IC50, as in this case) divided by the dose of that component in isolation required to exert the same effect. Thus each combination reported has two dose fraction measurements (eg. dose fraction it and dose fraction lapatinib) that define the combinations x/y coordinates on the isobologram.
Dose fraction of A for combination AB=IC50(A in AB)/IC50(A in isolation)
Dose fraction of B for combination AB=IC50(B in AB)/IC50(B in isolation)
The sum of these x/y coordinates are the combination index. By definition, the CI for either agent in isolation is 1. For the null hypothesis (in which both agents act as though they are equivalent doses of the same agent) the CI will be 1. For combinations where the CI<1, synergy is present.
CI(combination index)=dose fraction A+dose fraction B.
For the experiments used to generate dose-effect curves for the isobolograms and selectivity experiments, cells were plated at 3000 cells per well in 96 well plates. […] The day after the final treatment, cell viability was measured using WST-1 reagent (Roche) in accordance with the manufacturer's instructions. […]

With `Cc1ccc(S(=O)(=O)n2ccc3c(OCC(O)CN(CCCCCN)C(=O)N4CCC(C5CCN(C(=O)C67CC8CC(CC(C8)C6)C7)CC5)CC4)cccc32)cc1` (stereo not shown) [Wrenchnolol, wrenchnolol, reference compound], the cell proliferation entry in data set [1] is “inhibited cell proliferation”. Also, in data set [2], the Her2 expression entry is “decreased Her2 expression”.
On to `CN(C)C/C=C/C(=O)Nc1cc2c(Nc3ccc(F)c(Cl)c3)ncnc2cc1O[C@H]1CCOC1` [afatinib], for which, in the data set on CAL27 HNSCC cells, the mean tumor volume was 43 mm^3 and the “mean tumor volume, single-agent afatinib arm compared to the combination treatment arm” value is on record as 2.1 fold.
Consider `CC(C)C[C@]1(CCO)C[C@H](CN=[N+]=[N-])ON1Cc1ccc(-c2ccccc2)cc1` [biphenyl isoxazolidine], for which the Cell invasion entry in the data set on CAL27 cells [3] and in the data set with SCC25 cells [4] was “dramatically suppressed” throughout. Besides, the Cell migration entry in the data set on CAL27 cells [3] and in the data set on SCC25 cells [4] was “dramatically suppressed” each time. Further, the “EGFR and Her2 levels” value in data set [5] and in data set [6] was “dose-dependent decrease” throughout. Further, the IC50 in the data set on CAL27 cells [7] (CAL-27, 24 h) was determined as 46.8 µM; in the data set with SCC25 cells [8] (SCC-25, 24 h) it was 50.3 µM. Besides, in data set [1], the cell proliferation result is reported as “inhibited cell proliferation”. In addition, the Her2 expression entry in data set [2] was “decreased Her2 expression”.
As to `C#Cc1cccc(Nc2ncnc3cc(OCCOC)c(OCCOC)cc23)c1` [erlotinib], the “precipitation out of cell culture media” value in [9] is given as “precipitate out of cell culture media at higher concentrations”.
In the case of `CS(=O)(=O)CCNCc1ccc(-c2ccc3ncnc(Nc4ccc(OCc5cccc(F)c5)c(Cl)c4)c3c2)o1` [lapatinib, reference compound], the “effects on erbB2 and phosphorylated erbB2 levels as single agents” value in [10] was “moderate effects”. The IC50 came to 11.8 µM in the data set with CAL27 cells [7] (CAL-27, CAL27 cells, 24 hours of treatment, single agent); 0.048 ± 0.017 µM in the data set with SkBr3 (erbB2+) cells; 11.9 µM in the data set on SCC25 cells [8] (SCC-25, SCC25 cells, 24 hours of treatment, single agent).
